Biological target: WDR5 (Homo sapiens (Human), UniProt P61964)
Test: Surface Plasmon Resonance (SPR) assay, KD and residence time
Format: binding
Settings: surface plasmon resonance (SPR) assay; read-out: WDR5 binding affinity (KD)

| Compound | Kd |
| --- | --- |
| C[C@@H]1CN(c2cc(F)c(-c3cccc(C#N)c3)cc2NC(=O)c2c[nH]c(=O)cc2C(F)(F)F)C[C@H](C)N1C [Example 102, N-[5-(3-cyanophenyl)-4-fluoro-2-[(3R,5S)-3,4,5-trimethylpiperazin-1-yl]phenyl]-6-oxo-4-(trifluoromethyl)-1H-pyridine-3-carboxamide] | 2.08 nM |
| C[C@@H]1CN(c2cc(F)c(-c3cnc(N4CCOCC4)nc3)cc2NC(=O)c2sccc2C(F)(F)F)C[C@H](C)N1C [Example 211, N-[4-fluoro-5-(2-morpholin-4-ylpyrimidin-5-yl)-2-[(3R,5S)-3,4,5-trimethylpiperazin-1-yl]phenyl]-3-(trifluoromethyl)thiophene-2-carboxamide] | 120 nM |
| CC1CN(c2cc(F)c(-c3ccc(OCC4CC4)nc3)cc2NC(=O)c2c[nH]c(=O)cc2C(F)(F)F)CCN1C (stereo in doubt) [Example 198, N-[5-[6-(cyclopropylmethoxy)pyridin-3-yl]-4-fluoro-2-[(3R)-3,4-dimethylpiperazin-1-yl]phenyl]-6-oxo-4-(trifluoromethyl)-1H-pyridine-3-carboxamide] | 0.666 nM |
| C[C@@H]1CN(c2cc(F)c(-c3cnc(N4CCOCC4)nc3)cc2NC(=O)c2ccc(O)cc2C(F)(F)F)C[C@H](C)N1C [Example 290, N-[4-fluoro-5-(2-morpholin-4-ylpyrimidin-5-yl)-2-[(3R,5S)-3,4,5-trimethylpiperazin-1-yl]phenyl]-4-hydroxy-2-(trifluoromethyl)benzamide] | 8.9 nM |
| C[C@@H]1CN(c2cc(F)c(-c3cnc(N4CCN(C)CC4)nc3)cc2NC(=O)c2ccc(F)cc2C(F)(F)F)C[C@H](C)N1C [Example 379, 4-fluoro-N-[4-fluoro-5-[2-(4-methylpiperazin-1-yl)pyrimidin-5-yl]-2-[(3R,5S)-3,4,5-trimethylpiperazin-1-yl]phenyl]-2-(trifluoromethyl)benzamide] | 0.933 nM |
| C[C@@H]1CN(c2cc(F)c(-c3cncc(C(F)(F)F)c3)cc2NC(=O)c2c[nH]c(=O)cc2C(F)(F)F)C[C@H](C)N1C [Example 173, N-[4-fluoro-2-[(3R,5S)-3,4,5-trimethylpiperazin-1-yl]-5-[5-(trifluoromethyl)pyridin-3-yl]phenyl]-6-oxo-4-(trifluoromethyl)-1H-pyridine-3-carboxamide] | 2.78 nM |
| C[C@@H]1CN(c2cc(F)c(-c3cncc(OCC4CC4)c3)cc2NC(=O)c2c[nH]c(=O)cc2C(F)(F)F)C[C@H](C)N1C [Example 156, N-[5-[5-(cyclopropylmethoxy)pyridin-3-yl]-4-fluoro-2-[(3R,5S)-3,4,5-trimethylpiperazin-1-yl]phenyl]-6-oxo-4-(trifluoromethyl)-1H-pyridine-3-carboxamide] | 8.61 nM |
| C[C@@H]1CN(c2cc(F)c(-c3cnc(N(C)C)c(C#N)c3)cc2NC(=O)c2c[nH]c(=O)cc2C(F)(F)F)C[C@H](C)N1C [Example 220, N-[5-[5-cyano-6-(dimethylamino)pyridin-3-yl]-4-fluoro-2-[(3R,5S)-3,4,5-trimethylpiperazin-1-yl]phenyl]-6-oxo-4-(trifluoromethyl)-1H-pyridine-3-carboxamide] | 2.25 nM |

Other lines, results leading:

| Kd | Compound |
| --- | --- |
| 3.18 nM | CC1CN(c2cc(F)c(-c3cnc(C#N)nc3)cc2NC(=O)c2cn(C)c(=O)cc2C(F)F)CCN1C (stereo in doubt) [Example 218, N-[5-(2-cyanopyrimidin-5-yl)-4-fluoro-2-[(3R)-3,4-dimethylpiperazin-1-yl]phenyl]-4-(difluoromethyl)-1-methyl-6-oxopyridine-3-carboxamide] |
| 1.2 nM | CCN(C)[C@@H]1CCN(c2cc(F)c(-c3cnc(N4CCOCC4)nc3)cc2NC(=O)c2c[nH]c(=O)cc2C(F)(F)F)C1 [Example 345, N-[4-fluoro-5-(2-morpholin-4-ylpyrimidin-5-yl)-2-[(3R)-3-[ethyl(methyl)amino]pyrrolidin-1-yl]phenyl]-6-oxo-4-(trifluoromethyl)-1H-pyridine-3-carboxamide] |
| > 200 nM | CC1CN(c2cc(F)c(-c3cnc(N4CCOCC4)nc3)cc2NC(=O)c2ccco2)CCN1C (stereo in doubt) [Example 79, N-[4-fluoro-5-(2-morpholin-4-ylpyrimidin-5-yl)-2-[(3R)-3,4-dimethylpiperazin-1-yl]phenyl]furan-2-carboxamide] |
| 4.22 nM | CC1CN(c2cc(F)c(-c3cnc(N4CCOCC4)nc3)cc2NC(=O)c2ccc(F)cc2C(F)(F)F)CCN1C (stereo in doubt) [Example 298, 4-fluoro-N-[4-fluoro-5-(2-morpholin-4-ylpyrimidin-5-yl)-2-[(3R)-3,4-dimethylpiperazin-1-yl]phenyl]-2-(trifluoromethyl)benzamide] |

Same assay, conditions: surface plasmon resonance (SPR); read-out: WDR5 binding affinity (KD)

| Compound | Kd |
| --- | --- |
| C[C@@H]1CN(c2cc(F)c(-c3cnc(N4CCOCC4)nc3)cc2NC(=O)c2cc(N)c(F)cc2C(F)(F)F)C[C@H](C)N1C [Example 502, 5-amino-4-fluoro-N-[4-fluoro-5-(2-morpholin-4-ylpyrimidin-5-yl)-2-[(3R,5S)-3,4,5-trimethylpiperazin-1-yl]phenyl]-2-(trifluoromethyl)benzamide] | 1.15 nM |
| C[C@@H]1CN(c2cc(F)c(-c3ccc(C(N)=O)c(F)c3)cc2NC(=O)c2c[nH]c(=O)cc2C(F)(F)F)C[C@H](C)N1C [Example 551, N-[5-(4-carbamoyl-3-fluorophenyl)-4-fluoro-2-[(3R,5S)-3,4,5-trimethylpiperazin-1-yl]phenyl]-6-oxo-4-(trifluoromethyl)-1H-pyridine-3-carboxamide] | 0.6 nM |
| C[C@@H]1CN(c2cc(F)c(-c3ccc4ncsc4c3)cc2NC(=O)c2cn(C)c(=O)cc2C(F)F)C[C@H](C)N1C [Example 684, N-[5-(1,3-benzothiazol-6-yl)-4-fluoro-2-[(3R,5S)-3,4,5-trimethylpiperazin-1-yl]phenyl]-4-(difluoromethyl)-1-methyl-6-oxopyridine-3-carboxamide] | 7.82 nM |
| CC(C)N(C)[C@@H]1CCN(c2cc(F)c(-c3cnc(N4CCOCC4)nc3)cc2NC(=O)c2c[nH]c(=O)cc2C(F)(F)F)C1 [Example 420, N-[4-fluoro-5-(2-morpholin-4-ylpyrimidin-5-yl)-2-[(3R)-3-[methyl(propan-2-yl)amino]pyrrolidin-1-yl]phenyl]-6-oxo-4-(trifluoromethyl)-1H-pyridine-3-carboxamide] | 172 nM |
| 4-(difluoromethyl)-N-[4-fluoro-5-[6-(oxan-4-yloxy)pyridin-3-yl]-2-[(3R)-3,4-dimethylpiperazin-1-yl]phenyl]-6-oxo-1H-pyridine-3-carboxamide [Example 403] | 1.16 nM |
| C[C@@H]1CN(c2cc(F)c(-c3c[nH]c(=O)c(F)c3)cc2NC(=O)c2c[nH]c(=O)cc2C(F)(F)F)C[C@H](C)N1C [Example 562, N-[4-fluoro-5-(5-fluoro-6-oxo-1H-pyridin-3-yl)-2-[(3R,5S)-3,4,5-trimethylpiperazin-1-yl]phenyl]-6-oxo-4-(trifluoromethyl)-1H-pyridine-3-carboxamide] | 0.904 nM |
| C[C@@H]1CN(c2cc(F)c(-c3ccc4scnc4c3)cc2NC(=O)c2c[nH]c(=O)cc2C(F)(F)F)C[C@H](C)N1C [Example 678, N-[5-(1,3-benzothiazol-5-yl)-4-fluoro-2-[(3R,5S)-3,4,5-trimethylpiperazin-1-yl]phenyl]-6-oxo-4-(trifluoromethyl)-1H-pyridine-3-carboxamide] | 3.26 nM |

Continued, values first:

| Kd | Compound |
| --- | --- |
| 3.52 nM | CC1COCCN1c1ncc(-c2cc(NC(=O)c3cn(C)c(=O)cc3C(F)F)c(N3C[C@@H](C)N(C)[C@@H](C)C3)cc2F)cn1 (stereo in doubt) [Example 475, 4-(difluoromethyl)-N-[4-fluoro-5-[2-[(3R)-3-methylmorpholin-4-yl]pyrimidin-5-yl]-2-[(3S,5R)-3,4,5-trimethylpiperazin-1-yl]phenyl]-1-methyl-6-oxopyridine-3-carboxamide] |
| 5.29 nM | C[C@@H]1CN(c2cc(F)c(-c3cccc4scnc34)cc2NC(=O)c2c[nH]c(=O)cc2C(F)(F)F)C[C@H](C)N1C [Example 677, N-[5-(1,3-benzothiazol-4-yl)-4-fluoro-2-[(3R,5S)-3,4,5-trimethylpiperazin-1-yl]phenyl]-6-oxo-4-(trifluoromethyl)-1H-pyridine-3-carboxamide] |
| 2.23 nM | C[C@@H]1CN(c2cc(F)c(-c3cc(F)c(C(=O)NCC4CC4)c(F)c3)cc2NC(=O)c2c[nH]c(=O)cc2C(F)(F)F)C[C@H](C)N1C [Example 712, N-[5-[4-(cyclopropylmethylcarbamoyl)-3,5-difluorophenyl]-4-fluoro-2-[(3R,5S)-3,4,5-trimethylpiperazin-1-yl]phenyl]-6-oxo-4-(trifluoromethyl)-1H-pyridine-3-carboxamide] |
| 1.59 nM | CC(C)OC(=O)N1CCC=C(c2cc(NC(=O)c3c[nH]c(=O)cc3C(F)F)c(N3C[C@@H](C)N(C)[C@@H](C)C3)cc2F)C1 [Example 725, propan-2-yl 5-[5-[[4-(difluoromethyl)-6-oxo-1H-pyridine-3-carbonyl]amino]-2-fluoro-4-[(3R,5S)-3,4,5-trimethylpiperazin-1-yl]phenyl]-3,6-dihydro-2H-pyridine-1-carboxylate] |
| 0.29 nM | C[C@@H]1CN(c2cc(F)c(-c3cnc(N4CCOC[C@H]4C)nc3)cc2NC(=O)c2ccc(F)cc2C(F)(F)F)CCN1C (stereo in doubt) [Example 736, 4-fluoro-N-[4-fluoro-2-[(3R)-3,4-dimethylpiperazin-1-yl]-5-[2-[(3R)-3-methylmorpholin-4-yl]pyrimidin-5-yl]phenyl]-2-(trifluoromethyl)benzamide] |
| 2.97 nM | C[C@@H]1CN(c2cc(F)c(-c3ccc4ncsc4c3)cc2NC(=O)c2c[nH]c(=O)cc2C(F)(F)F)C[C@H](C)N1C [Example 679, N-[5-(1,3-benzothiazol-6-yl)-4-fluoro-2-[(3R,5S)-3,4,5-trimethylpiperazin-1-yl]phenyl]-6-oxo-4-(trifluoromethyl)-1H-pyridine-3-carboxamide] |
| 2.49 nM | CC1CN(c2cc(F)c(C3=CCCN(c4ncc(C#N)s4)C3)cc2NC(=O)c2c[nH]c(=O)cc2C(F)F)CCN1C (stereo in doubt) [Example 688, N-[5-[1-(5-cyano-1,3-thiazol-2-yl)-3,6-dihydro-2H-pyridin-5-yl]-4-fluoro-2-[(3R)-3,4-dimethylpiperazin-1-yl]phenyl]-4-(difluoromethyl)-6-oxo-1H-pyridine-3-carboxamide] |
